Where “and” joins values, the source holds several entries; their conditions need not be identical. Equal entries are not always repeated. Inconclusive results and toxic doses are left out. The calls were made as follows: active = survival T/C of 150% or more; inactive = T/C below 125% in these data.
System: P388 leukemia ip, CD2F1 mice, survival T/C
Assay: NCI In Vivo Anticancer Drug Screen. Data for tumor model P388 Leukemia (intraperitoneal) in CD2F1 (CDF1) mice
Settings: endpoint: median survival time, higher = longer survival
Outline: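 Mice carrying the transplanted tumor received test compound or vehicle. Survival was recorded in each group, and the value is the treated-group measurement divided by that of the vehicle-treated control group.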

[1] = dose: 60.0 mg/kg/injection, schedule: Q01DX005 (ip), vehicle: saline with Tween-80
[2] = dose: 120.0 mg/kg/injection, schedule: Q01DX005 (ip), vehicle: saline with Tween-80
[3] = dose: 240.0 mg/kg/injection, schedule: Q01DX005 (ip), vehicle: saline with Tween-80
[4] = dose: 25.0 mg/kg/injection, schedule: Q01DX009 (ip), vehicle: saline with Tween-80
[5] = dose: 50.0 mg/kg/injection, schedule: Q01DX009 (ip), vehicle: saline with Tween-80
[6] = dose: 6.25 mg/kg/injection, schedule: Q01DX009 (ip), vehicle: saline
[7] = dose: 12.5 mg/kg/injection, schedule: Q01DX009 (ip), vehicle: saline
[8] = dose: 12.5 mg/kg/injection, schedule: Q01DX009 (ip), vehicle: saline with Tween-80

Measured: T/C

CCc1cccc(C)c1NC(=O)C(=O)C(C#N)c1ccc(CC#N)cc1 (stereo unspecified)
inactive: [1] 101 % of control | [2] 100 % of control

COc1ccc(CS(=O)(=O)c2cncnc2N)cc1OC
inactive: dose: 100.0 mg/kg/injection, schedule: Q01DX001 (ip), vehicle: saline 106 % of control | dose: 200.0 mg/kg/injection, schedule: Q01DX001 (ip), vehicle: saline 96 % of control | dose: 400.0 mg/kg/injection, schedule: Q01DX001 (ip), vehicle: saline 101 % of control

CC(C)c1ccc2nc3ccc(C(=O)NCCN4CCN(c5ccccc5)CC4)cn3c(=O)c2c1
inactive: [1] 97 % of control | [2] 89 % of control | [3] 92 % of control

CNC(=O)c1ccccc1
inactive: [4] 98 % of control | [5] 100 % of control | dose: 100.0 mg/kg/injection, schedule: Q01DX009 (ip), vehicle: saline with Tween-80 100 % of control | dose: 200.0 mg/kg/injection, schedule: Q01DX009 (ip), vehicle: saline with Tween-80 100 % of control

CC1=C2C(=CO[C@H](C)[C@H]2C)C(=O)C(C(=O)O)=C1O
inactive: dose: 6.25 mg/kg/injection, schedule: Q01DX009 (ip), vehicle: Klucel (hydroxypropylcellulose) (HPC) 112 % of control | [6] 117 % of control | dose: 12.5 mg/kg/injection, schedule: Q01DX009 (ip), vehicle: Klucel (hydroxypropylcellulose) (HPC) 120 % of control | [7] 115 % of control | dose: 25.0 mg/kg/injection, schedule: Q01DX009 (ip), vehicle: Klucel (hydroxypropylcellulose) (HPC) 124 % of control

CCN(CC)Cc1c(O)ccc2c3c(c(=O)oc12)CCCC3
inactive: dose: 8.0 mg/kg/injection, schedule: Q01DX009 (ip), vehicle: Klucel (hydroxypropylcellulose) (HPC) 101 % of control | dose: 16.0 mg/kg/injection, schedule: Q01DX009 (ip), vehicle: Klucel (hydroxypropylcellulose) (HPC) 102 % of control | dose: 32.0 mg/kg/injection, schedule: Q01DX009 (ip), vehicle: Klucel (hydroxypropylcellulose) (HPC) 101 % of control

O=C(C[n+]1ccc2ccccc2c1)c1ccccc1
inactive: [6] 111 % of control | [8] 113 % of control | [7] 108 % of control | [4] 104 % of control | dose: 25.0 mg/kg/injection, schedule: Q01DX009 (ip), vehicle: saline 98 % of control | [5] 104 % of control | dose: 50.0 mg/kg/injection, schedule: Q01DX009 (ip), vehicle: saline 110 % of control

Fc1ccc(F)c(C(Nc2nncs2)Nc2nncs2)c1
inactive: dose: 30.0 mg/kg/injection, schedule: Q01DX005 (ip), vehicle: saline with Tween-80 110 % of control | [1] 108 % of control and 119 % of control

COC(=O)c1cc2cc3c(c(O)c2c(=O)o1)OC1(Cc2c(O)c4c(c(O)c2O1)C(=O)C(OC)CC4=O)CC3O (stereo unspecified)
inactive: [8] 93 % of control | [4] 100 % of control | [5] 116 % of control

CC(=O)OC(C)C(=O)NCC(C)O (stereo unspecified)
inactive: dose: 25.0 mg/kg/injection, schedule: Q01DX005 (ip), vehicle: saline 100 % of control | dose: 50.0 mg/kg/injection, schedule: Q01DX005 (ip), vehicle: saline 103 % of control | dose: 100.0 mg/kg/injection, schedule: Q01DX005 (ip), vehicle: saline 98 % of control | dose: 200.0 mg/kg/injection, schedule: Q01DX005 (ip), vehicle: saline 100 % of control

C=CS(=O)(=NN1C(=O)c2ccccc2C1=O)c1ccc(C)cc1 (stereo unspecified)
inactive: dose: 6.25 mg/kg/injection, schedule: Q01DX001 (ip), vehicle: Klucel (hydroxypropylcellulose) (HPC) 95 % of control | dose: 12.5 mg/kg/injection, schedule: Q01DX001 (ip), vehicle: Klucel (hydroxypropylcellulose) (HPC) 98 % of control | dose: 25.0 mg/kg/injection, schedule: Q01DX001 (ip), vehicle: Klucel (hydroxypropylcellulose) (HPC) 104 % of control and 95 % of control | dose: 50.0 mg/kg/injection, schedule: Q01DX001 (ip), vehicle: Klucel (hydroxypropylcellulose) (HPC) 101 % of control and 104 % of control | dose: 100.0 mg/kg/injection, schedule: Q01DX001 (ip), vehicle: Klucel (hydroxypropylcellulose) (HPC) 106 % of control and 113 % of control

C=CCNc1nc(-c2ccc(OC)c(OC)c2)cs1
inactive: dose: 100.0 mg/kg/injection, schedule: Q04DX003 (ip), vehicle: Klucel (hydroxypropylcellulose) (HPC) 100 % of control | dose: 200.0 mg/kg/injection, schedule: Q04DX003 (ip), vehicle: Klucel (hydroxypropylcellulose) (HPC) 103 % of control | dose: 400.0 mg/kg/injection, schedule: Q04DX003 (ip), vehicle: Klucel (hydroxypropylcellulose) (HPC) 100 % of control

C(=C(Sc1ccccc1)Sc1ccccc1)C(Sc1ccccc1)c1ccccc1 (stereo unspecified)
inactive: dose: 50.0 mg/kg/injection, schedule: Q01DX009 (ip), vehicle: Klucel (hydroxypropylcellulose) (HPC) 93 % of control | dose: 100.0 mg/kg/injection, schedule: Q01DX009 (ip), vehicle: Klucel (hydroxypropylcellulose) (HPC) 96 % of control | dose: 200.0 mg/kg/injection, schedule: Q01DX009 (ip), vehicle: Klucel (hydroxypropylcellulose) (HPC) 90 % of control

Cc1ccc(S(=O)(=O)N/N=C2\COC(C)C2)cc1 (stereo unspecified)
inactive: dose: 50.0 mg/kg/injection, schedule: Q01DX005 (ip), vehicle: saline with Tween-80 93 % of control | dose: 100.0 mg/kg/injection, schedule: Q01DX005 (ip), vehicle: saline with Tween-80 91 % of control

COC(=O)n1oc2c(Br)cc(Br)cc2c1=O
inactive: dose: 100.0 mg/kg/injection, schedule: Q04DX002 (ip), vehicle: Klucel (hydroxypropylcellulose) (HPC) 93 % of control | dose: 200.0 mg/kg/injection, schedule: Q04DX002 (ip), vehicle: Klucel (hydroxypropylcellulose) (HPC) 101 % of control | dose: 400.0 mg/kg/injection, schedule: Q04DX002 (ip), vehicle: Klucel (hydroxypropylcellulose) (HPC) 101 % of control

NC(=O)C1C2CCC(O2)C1C(=O)O (stereo unspecified)
inactive: dose: 1.56 mg/kg/injection, schedule: Q01DX005 (ip), vehicle: Klucel (hydroxypropylcellulose) (HPC) 99 % of control | dose: 3.12 mg/kg/injection, schedule: Q01DX005 (ip), vehicle: Klucel (hydroxypropylcellulose) (HPC) 97 % of control | dose: 6.25 mg/kg/injection, schedule: Q01DX005 (ip), vehicle: Klucel (hydroxypropylcellulose) (HPC) 95 % of control

COc1ccc(CC2c3cc(OC)c(OC)cc3CCN2C)cc1OC (stereo unspecified)
inactive: dose: 1.5 mg/kg/injection, schedule: Q01DX005 (ip), vehicle: saline with Tween-80 97 % of control | dose: 3.0 mg/kg/injection, schedule: Q01DX005 (ip), vehicle: saline with Tween-80 98 % of control | dose: 6.0 mg/kg/injection, schedule: Q01DX005 (ip), vehicle: saline with Tween-80 99 % of control | [5] 91 % of control

COc1nc(NC2OC(COC(C)=O)C(OC(C)=O)C(OC(C)=O)C2OC(C)=O)c(C(=O)CCl)c(=O)[nH]1 (stereo unspecified)
inactive: [1] 93 % of control | [2] 90 % of control | [3] 101 % of control

Nc1c(Br)cc2c(c1Br)Cc1cc([N+](=O)[O-])ccc1-2
inactive: dose: 31.3 mg/kg/injection, schedule: Q01DX010 (ip), vehicle: saline 90 % of control | dose: 62.5 mg/kg/injection, schedule: Q01DX010 (ip), vehicle: saline 100 % of control | dose: 125.0 mg/kg/injection, schedule: Q01DX010 (ip), vehicle: saline 105 % of control | dose: 250.0 mg/kg/injection, schedule: Q01DX010 (ip), vehicle: saline 110 % of control

Source: PubChem BioAssay AID330 (DTP/NCI, 2004)
